Source: patent publication US20110281744A1, “METHOD OF IDENTIFYING COMPOUNDS THAT MODULATE REGULATION OF IRON RESPONSE ELEMENTS” (priority 2007, published 2011)
Like-named read-outs stand apart in the source and are kept apart here. Ends that are not written are not given here.

Key:
[1] = test system: IRP; details: curcumin treatment; cited from earlier work
[2] = test system: ferritin; details: curcumin treatment; cited from earlier work
[3] = test system: TfR; details: curcumin treatment; cited from earlier work
[4] = test system: ferritin mRNA; test: Polysome analysis with northern blot: ferritin mRNA translation in treated cultured cells; type: cell-based; details: cells treated overnight with iron or iron plus desferal; FIG. 1B right panel
Experimental: (§1) FIG. 1A top panel is a graph showing polysome analysis with optical density as a function of percent sucrose. Total RNA is isolated from cultured cells by lysing the cells in polysome extraction buffer (15 mM Tris, pH 7.6, 0.3 M NaCl, 15 mM MgCl2 and 1% Triton X-100) containing 100 ng/ml cyclohexamide and 1 mg/ml heparin. The lysates are then layered onto a 10-50% sucrose gradient and centrifuged at 38,000 rpm for 2 hrs. The gradients are fractionated by monitoring UV absorbance at 254 nm.
(§2) FIG. 1A bottom panel is a northern blot showing Actin and Ferratin RNA. RNA was isolated from each fraction using RNeasy 96 Universal Tissue Kit (Qiagen) then loaded on a agarose gel and subjected to northern analysis with the appropriate probe. The high molecular weight fractions (6-12) represent those for which protein synthesis is occurring.
(§3) FIG. 1B are northern blots showing the indicated RNA. Cells were treated overnight with either iron oriron plus desferal to chelate iron and RNA was isolated and analyzed as described above.

[5] = test system: actin mRNA; test: Polysome analysis with northern blot: actin mRNA translation in treated cultured cells (control); type: cell-based; details: cells treated overnight with iron or iron plus desferal; FIG. 1B left panel
Experimental: as §1, §2, §3

[6] = test system: TfR; details: melanoma cells; cited from earlier work
[7] = test system: melanoma cells; details: cited from earlier work
[8] = test system: iron uptake; details: through reduction in IRE(+) DMT1 mRNA; cited from earlier work
[9] = test system: DMT1; details: cited from earlier work

COc1cc(/C=C/C(=O)CC(=O)/C=C/c2ccc(O)c(OC)c2)ccc1O [curcumin, Curcumin]
IRP activation [1]: increased IRP activation | ferritin level [2]: decrease in ferritin | TfR level [3]: increase in TfR

CC(=O)N(O)CCCCCNC(=O)CCC(=O)N(O)CCCCCNC(=O)CCC(=O)N(O)CCCCCN [desferal]
effect on ferritin translation (polysome distribution of ferritin mRNA) [4]: inhibits translation | effect on translation of actin mRNA [5]: neither iron nor deseferal treatment had an effect

[Fe] [iron]
effect on ferritin translation (polysome distribution of ferritin mRNA) [4]: ferritin translation increases | effect on translation of actin mRNA [5]: neither iron nor deseferal treatment had an effect

O=C1O[C@H]([C@@H](O)CO)C([O-])=C1O.[Na+] [sodium ascorbate, Sodium ascorbate]
TfR level [6]: reduction in TfR | cell death (apoptosis) [7]: apoptosis | intracellular iron [7]: reduced intracellular iron

hepcidin (DTHFPICIFCCGCCHRSKCGMCCKT; ends and bridges not checked; cysteine pairing not given here; UniProt P81172 60-84, looked up) [a naturally occurring peptide]
iron uptake [8]: significantly reduce iron uptake | DMT1 protein isoforms with or without IRE [9]: reduces DMT1 protein isoforms containing the IRE, but not those lacking the IRE
